Measurements: patent publication US20100099871A1, “ANTI-PSYCHOTIC COMPOUNDS AND PHARMACEUTICAL COMPOSITIONS THEREOF” (priority 2008, published 2010)

How the values were obtained:
5-HT2a = 5-HT2a (Homo sapiens, UniProt P28223); experiment: In vitro receptor binding, 5-HT2a; details: read-out: In vitro testing data (receptor binding affinity), 5-HT2a
Procedure: (§1) Three of the compounds predicted to display antipsychotic activity have been synthesized and characterized. Once compounds meeting selection criteria of the spectral models were identified, confirmatory in vitro screening and cross-screening were conducted. For example, receptor binding studies were conducted for 5-HT1A, 5-HT2A, 5-HT2C, 5-HT6, 5-HT7, α1A, α1B, α1D, α2A, α2B, α2C, D2, H1, M1, M2, M3, M4, and M5 to further determine a broad pharmacological profile for compounds meeting spectral modeling selection criteria. Synthesis and characterization of these compounds is provided as an Experimental Example. […] For D2 and 5-HT2A receptors, experimental results were within 11% of predicted values. […] In some embodiments, the compounds are selective for 5-HT2A over D2. […] As such the compounds are advantageous over clozapine and may be beneficial for treating psychotic conditions, such as schizophrenia.

5-HT2c = 5-HT2c (Homo sapiens, UniProt P28335); experiment: In vitro receptor binding, 5-HT2c; details: read-out: In vitro testing data (receptor binding affinity), 5-HT2c
Sequence of 5-HT2c (P28335 33-458, species assumed): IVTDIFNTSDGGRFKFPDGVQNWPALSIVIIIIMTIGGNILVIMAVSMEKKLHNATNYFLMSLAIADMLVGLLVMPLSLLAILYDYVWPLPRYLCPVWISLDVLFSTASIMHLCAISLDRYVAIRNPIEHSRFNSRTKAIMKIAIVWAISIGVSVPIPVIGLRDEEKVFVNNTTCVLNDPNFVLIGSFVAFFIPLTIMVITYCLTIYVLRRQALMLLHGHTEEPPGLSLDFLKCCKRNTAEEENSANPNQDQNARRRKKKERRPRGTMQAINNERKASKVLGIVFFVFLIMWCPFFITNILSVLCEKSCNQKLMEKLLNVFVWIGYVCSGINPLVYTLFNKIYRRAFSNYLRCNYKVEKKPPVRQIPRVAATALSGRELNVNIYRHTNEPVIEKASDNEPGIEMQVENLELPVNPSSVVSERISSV
Procedure: as §1

5-HT6 = 5-HT6 (Homo sapiens, UniProt P50406); experiment: In vitro receptor binding, 5-HT6; details: read-out: In vitro testing data (receptor binding affinity), 5-HT6
Procedure: as §1

5-HT7 = 5-HT7 (Homo sapiens, UniProt P34969); experiment: In vitro receptor binding, 5-HT7; details: read-out: In vitro testing data (receptor binding affinity), 5-HT7
Sequence of 5-HT7 (P34969 whole entry, species assumed): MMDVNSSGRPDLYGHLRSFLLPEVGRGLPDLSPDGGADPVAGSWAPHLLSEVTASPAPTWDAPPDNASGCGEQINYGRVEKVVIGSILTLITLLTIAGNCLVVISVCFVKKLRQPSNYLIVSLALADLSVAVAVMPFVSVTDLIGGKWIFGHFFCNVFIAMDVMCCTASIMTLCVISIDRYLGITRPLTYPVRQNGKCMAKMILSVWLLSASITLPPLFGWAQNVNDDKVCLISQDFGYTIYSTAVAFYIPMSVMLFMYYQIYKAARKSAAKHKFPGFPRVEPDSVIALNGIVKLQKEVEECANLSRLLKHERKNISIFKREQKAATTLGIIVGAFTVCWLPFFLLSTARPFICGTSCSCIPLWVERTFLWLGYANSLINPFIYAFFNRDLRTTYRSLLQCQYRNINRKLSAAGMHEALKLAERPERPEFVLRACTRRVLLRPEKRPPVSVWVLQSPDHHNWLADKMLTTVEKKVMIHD
Procedure: as §1

Alpha 1A = Alpha 1A (Homo sapiens, UniProt P35348); experiment: In vitro receptor binding, Alpha 1A; details: given in words, no number
Sequence of Alpha 1A (P35348 whole entry): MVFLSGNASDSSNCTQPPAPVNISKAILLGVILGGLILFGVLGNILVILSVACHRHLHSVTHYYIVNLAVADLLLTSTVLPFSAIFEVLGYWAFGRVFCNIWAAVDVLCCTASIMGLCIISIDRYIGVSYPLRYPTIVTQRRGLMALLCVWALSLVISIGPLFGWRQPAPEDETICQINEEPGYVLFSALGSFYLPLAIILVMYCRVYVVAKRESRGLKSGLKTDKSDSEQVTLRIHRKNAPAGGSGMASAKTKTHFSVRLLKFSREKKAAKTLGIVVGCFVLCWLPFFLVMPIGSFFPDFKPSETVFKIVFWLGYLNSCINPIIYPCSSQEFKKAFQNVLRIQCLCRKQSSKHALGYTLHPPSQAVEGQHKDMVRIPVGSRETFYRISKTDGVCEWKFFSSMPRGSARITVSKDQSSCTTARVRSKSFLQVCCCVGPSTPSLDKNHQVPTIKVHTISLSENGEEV
Procedure: as §1

Alpha 1B = Alpha 1B (Homo sapiens, UniProt P35368); experiment: In vitro receptor binding, Alpha 1B; details: given in words, no number
Sequence of Alpha 1B (P35368 whole entry): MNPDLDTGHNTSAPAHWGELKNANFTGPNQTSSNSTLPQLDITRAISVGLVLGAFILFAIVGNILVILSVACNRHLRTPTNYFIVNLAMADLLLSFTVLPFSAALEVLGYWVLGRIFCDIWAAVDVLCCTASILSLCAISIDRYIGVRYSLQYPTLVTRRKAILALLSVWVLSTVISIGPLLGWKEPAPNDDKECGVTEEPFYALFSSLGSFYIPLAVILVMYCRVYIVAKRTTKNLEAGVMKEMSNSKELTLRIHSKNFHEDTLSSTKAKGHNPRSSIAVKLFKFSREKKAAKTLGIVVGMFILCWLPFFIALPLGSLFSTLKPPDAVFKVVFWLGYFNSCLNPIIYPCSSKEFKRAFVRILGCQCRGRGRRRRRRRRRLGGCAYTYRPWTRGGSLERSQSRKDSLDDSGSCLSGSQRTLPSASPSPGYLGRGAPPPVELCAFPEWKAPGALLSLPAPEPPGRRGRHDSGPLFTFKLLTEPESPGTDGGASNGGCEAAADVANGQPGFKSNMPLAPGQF
Procedure: as §1

Alpha 1D = Alpha 1D (Homo sapiens, UniProt P25100); experiment: In vitro receptor binding, Alpha 1D; details: given in words, no number
Procedure: as §1

Alpha 2A = Alpha 2A (Homo sapiens, UniProt P08913); experiment: In vitro receptor binding, Alpha 2A; details: given in words, no number
Procedure: as §1

Alpha 2B = Alpha 2B (Homo sapiens, UniProt P18089); experiment: In vitro receptor binding, Alpha 2B; details: given in words, no number
Sequence of Alpha 2B (P18089 whole entry): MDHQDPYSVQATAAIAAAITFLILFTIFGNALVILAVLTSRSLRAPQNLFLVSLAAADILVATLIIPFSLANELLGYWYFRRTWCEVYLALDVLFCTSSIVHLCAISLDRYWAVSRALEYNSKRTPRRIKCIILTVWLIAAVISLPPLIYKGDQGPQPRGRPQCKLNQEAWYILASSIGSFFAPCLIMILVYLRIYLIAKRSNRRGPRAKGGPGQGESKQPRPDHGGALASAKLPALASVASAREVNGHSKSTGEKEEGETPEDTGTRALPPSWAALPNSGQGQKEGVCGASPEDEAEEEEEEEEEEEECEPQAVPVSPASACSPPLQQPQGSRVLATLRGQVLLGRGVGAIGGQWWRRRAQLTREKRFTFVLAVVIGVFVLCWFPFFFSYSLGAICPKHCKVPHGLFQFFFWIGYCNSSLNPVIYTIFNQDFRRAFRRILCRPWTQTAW
Procedure: as §1

Alpha 2C = Alpha 2C (Homo sapiens, UniProt P18825); experiment: In vitro receptor binding, Alpha 2C; details: given in words, no number
Procedure: as §1

D2 = D2 (Homo sapiens, UniProt P14416); experiment: In vitro receptor binding, D2; details: read-out: In vitro testing data (receptor binding affinity), D2
Sequence of D2 (P14416 whole entry): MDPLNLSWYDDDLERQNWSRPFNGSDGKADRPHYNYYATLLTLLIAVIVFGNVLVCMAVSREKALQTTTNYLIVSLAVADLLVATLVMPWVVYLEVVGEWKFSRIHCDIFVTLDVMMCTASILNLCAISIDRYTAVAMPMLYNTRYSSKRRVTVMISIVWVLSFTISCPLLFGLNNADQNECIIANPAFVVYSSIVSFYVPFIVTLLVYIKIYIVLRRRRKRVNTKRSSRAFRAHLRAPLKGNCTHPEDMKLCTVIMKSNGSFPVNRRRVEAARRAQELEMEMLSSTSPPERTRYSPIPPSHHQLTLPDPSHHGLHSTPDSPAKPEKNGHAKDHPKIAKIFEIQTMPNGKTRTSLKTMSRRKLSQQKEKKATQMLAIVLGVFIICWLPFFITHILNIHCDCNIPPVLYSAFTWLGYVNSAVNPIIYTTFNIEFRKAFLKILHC
Procedure: as §1

H1 = H1 (Homo sapiens, UniProt P35367); experiment: In vitro receptor binding, H1; details: read-out: In vitro testing data (receptor binding affinity), H1
Procedure: as §1

M1 = M1 (Homo sapiens, UniProt P11229); experiment: In vitro receptor binding, M1; details: read-out: In vitro testing data (receptor binding affinity), M1
Sequence of M1 (P11229 whole entry): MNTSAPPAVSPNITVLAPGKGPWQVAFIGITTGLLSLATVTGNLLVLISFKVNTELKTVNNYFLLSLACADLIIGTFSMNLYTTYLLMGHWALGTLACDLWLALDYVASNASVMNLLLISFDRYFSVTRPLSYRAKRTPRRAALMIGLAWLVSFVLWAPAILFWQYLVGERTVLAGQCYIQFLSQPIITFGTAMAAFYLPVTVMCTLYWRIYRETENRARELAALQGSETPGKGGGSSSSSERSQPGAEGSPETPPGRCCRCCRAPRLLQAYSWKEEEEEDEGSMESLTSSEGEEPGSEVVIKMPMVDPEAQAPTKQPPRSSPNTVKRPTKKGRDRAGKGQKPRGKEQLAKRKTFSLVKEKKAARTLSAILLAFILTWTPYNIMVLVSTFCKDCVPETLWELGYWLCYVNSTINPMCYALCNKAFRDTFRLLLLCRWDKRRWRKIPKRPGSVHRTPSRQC
Procedure: as §1

M2 = M2 (Homo sapiens, UniProt P08172); experiment: In vitro receptor binding, M2; details: read-out: In vitro testing data (receptor binding affinity), M2
Procedure: as §1

M3 = M3 (Homo sapiens, UniProt P20309); experiment: In vitro receptor binding, M3; details: read-out: In vitro testing data (receptor binding affinity), M3
Sequence of M3 (P20309 whole entry): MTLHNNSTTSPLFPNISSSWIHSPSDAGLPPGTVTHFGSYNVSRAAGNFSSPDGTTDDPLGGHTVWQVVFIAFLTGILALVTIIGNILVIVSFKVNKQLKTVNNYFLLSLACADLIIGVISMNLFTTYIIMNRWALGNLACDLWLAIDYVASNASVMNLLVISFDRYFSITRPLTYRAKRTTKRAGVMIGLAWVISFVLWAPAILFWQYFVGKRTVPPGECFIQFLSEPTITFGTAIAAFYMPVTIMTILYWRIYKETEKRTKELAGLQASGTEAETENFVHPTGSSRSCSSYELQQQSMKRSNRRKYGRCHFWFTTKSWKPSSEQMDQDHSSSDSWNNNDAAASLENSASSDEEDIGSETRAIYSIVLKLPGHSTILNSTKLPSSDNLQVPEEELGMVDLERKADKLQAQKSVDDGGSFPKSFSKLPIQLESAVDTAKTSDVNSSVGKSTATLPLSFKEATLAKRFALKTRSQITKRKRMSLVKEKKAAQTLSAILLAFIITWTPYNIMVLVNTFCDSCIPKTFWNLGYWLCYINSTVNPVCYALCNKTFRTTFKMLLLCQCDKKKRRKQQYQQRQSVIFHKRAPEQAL
Procedure: as §1

M4 = M4 (Homo sapiens, UniProt P08173); experiment: In vitro receptor binding, M4; details: read-out: In vitro testing data (receptor binding affinity), M4
Sequence of M4 (P08173 whole entry): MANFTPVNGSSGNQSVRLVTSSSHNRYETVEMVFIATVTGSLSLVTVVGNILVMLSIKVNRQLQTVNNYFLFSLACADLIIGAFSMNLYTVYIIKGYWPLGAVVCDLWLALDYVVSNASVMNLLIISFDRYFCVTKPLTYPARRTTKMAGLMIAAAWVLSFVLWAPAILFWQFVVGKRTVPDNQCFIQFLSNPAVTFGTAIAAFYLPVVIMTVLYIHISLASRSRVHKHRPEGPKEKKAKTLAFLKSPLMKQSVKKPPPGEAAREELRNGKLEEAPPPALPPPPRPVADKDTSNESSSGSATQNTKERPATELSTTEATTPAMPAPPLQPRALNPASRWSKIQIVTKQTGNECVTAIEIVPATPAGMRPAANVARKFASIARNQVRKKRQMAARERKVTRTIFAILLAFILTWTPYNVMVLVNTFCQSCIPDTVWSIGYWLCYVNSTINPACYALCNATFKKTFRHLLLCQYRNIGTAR
Procedure: as §1

M5 = M5 (Homo sapiens, UniProt P08912); experiment: In vitro receptor binding, M5; details: read-out: In vitro testing data (receptor binding affinity), M5
Sequence of M5 (P08912 whole entry): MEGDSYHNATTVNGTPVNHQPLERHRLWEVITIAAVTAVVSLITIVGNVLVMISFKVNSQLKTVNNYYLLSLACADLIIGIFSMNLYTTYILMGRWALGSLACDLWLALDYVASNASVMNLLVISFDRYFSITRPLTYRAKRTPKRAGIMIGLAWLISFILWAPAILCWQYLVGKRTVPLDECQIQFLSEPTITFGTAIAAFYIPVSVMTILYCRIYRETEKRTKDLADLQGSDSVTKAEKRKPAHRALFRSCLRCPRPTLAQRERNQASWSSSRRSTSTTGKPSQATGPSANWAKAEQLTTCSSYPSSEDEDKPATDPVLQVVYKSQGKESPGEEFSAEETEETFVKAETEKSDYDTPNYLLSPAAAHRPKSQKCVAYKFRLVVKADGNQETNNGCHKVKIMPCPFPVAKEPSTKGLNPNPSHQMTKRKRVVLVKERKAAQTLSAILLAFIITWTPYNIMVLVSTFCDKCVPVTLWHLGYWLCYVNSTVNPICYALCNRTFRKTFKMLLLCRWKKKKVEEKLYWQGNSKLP
Procedure: as §1

5-HT1a = 5-HT1a (Homo sapiens, UniProt P08908); experiment: In vitro receptor binding, 5-HT1a; details: given in words, no number
Procedure: as §1

[1] = system: pre-frontal cortex dopamine release; experiment: In vivo microdialysis, pre-frontal cortex dopamine release; set-up: species or system male Sprague-Dawley rats; details: rat microdialysis
Procedure: (§2) In vivo microdialysis studies were conducted according to established methods. In summary, two cannulae with microdialysis probes were implanted via stereotaxic surgery (one each into two separate brain regions), into the medial prefrontal cortex and nucleus accumbens of male Sprague-Dawley rats weighing from 250 g to 300 g. After recovery from surgery, a solution was circulated through the probes on test days collecting extracellular synaptic fluid at 30-minute intervals and delivering it to an HPLC for analysis of extracellular dopamine concentrations in real time following antipsychotic compound dosing. Simultaneously, an aliquot was taken and frozen for later mass spectrometric determination of acetylcholine concentrations.

[2] = system: nucleus accumbens dopamine release; experiment: In vivo microdialysis, nucleus accumbens dopamine release; set-up: species or system male Sprague-Dawley rats; details: rat microdialysis; ceiling effect, increasing dose gave no additional release (FIG. 12)
Procedure: as §2

[3] = system: pre-frontal cortex acetylcholine release; experiment: In vivo microdialysis, pre-frontal cortex acetylcholine release; set-up: species or system male Sprague-Dawley rats; details: rat microdialysis (FIG. 13); LMD-00100t at the maximum dose tested, data not shown
Procedure: as §2

`CCN1CCN(CCN2c3ccccc3Cc3ccccc32)CC1` [LMD-00060] gave a Kd (5-HT2a) of 349 nM, a Kd (5-HT2c) of 2740 nM and a Kd (5-HT6) of 1520 nM. The Kd (5-HT7) was 1060 nM, the “In vitro testing data, Alpha 1A (yes)” value (Alpha 1A) was “yes” and the “In vitro testing data, Alpha 1B (yes)” value (Alpha 1B) was “yes”. For the same compound, the “In vitro testing data, Alpha 1D (yes)” value (Alpha 1D) was “yes”, the “In vitro testing data, Alpha 2A (yes)” value (Alpha 2A) was “yes” and the “In vitro testing data, Alpha 2B (yes)” value (Alpha 2B) was “yes”. The “In vitro testing data, Alpha 2C (yes)” value (Alpha 2C) was “yes”, the Kd (D2) was 632 nM and the Kd (H1) was 255 nM. For the same compound, the Kd (M1) was 1360 nM, the Kd (M2) was over 10000 nM and the Kd (M3) was 2490 nM. The Kd (M4) was 1910 nM and the Kd (M5) was 613 nM.
For `CN1CCN(CCN2c3ccccc3Cc3ccccc32)CC1` [LMD-00076], the “In vitro testing data, 5-HT1a (yes / dash)” value (5-HT1a) was “yes”, the Kd (5-HT2a) was 249 nM and the Kd (5-HT2c) was 968 nM. For the same compound, the Kd (5-HT6) was 652 nM, the Kd (5-HT7) was 1140 nM and the “In vitro testing data, Alpha 1A (yes)” value (Alpha 1A) was “yes”. The “In vitro testing data, Alpha 1B (yes)” value (Alpha 1B) was “yes”, the “In vitro testing data, Alpha 1D (yes)” value (Alpha 1D) was “yes” and the “In vitro testing data, Alpha 2A (yes)” value (Alpha 2A) was “yes”. For the same compound, the “In vitro testing data, Alpha 2B (yes)” value (Alpha 2B) was “yes”, the “In vitro testing data, Alpha 2C (yes)” value (Alpha 2C) was “yes” and the Kd (D2) was 692 nM. The Kd (H1) was 185 nM, the Kd (M1) was 707 nM and the Kd (M2) was 3330 nM. The Kd (M3) was 702 nM, the Kd (M4) was 1100 nM and the Kd (M5) was 419 nM. For the same compound, the “pre-frontal cortex dopamine efflux on co-dosing with WAY 100635” value ([1]; 5-HT1A silent antagonist WAY 100635 co-dosed with LMD-00076 (FIG. 11, curve labeled control)) was “blocked”, the “pre-frontal cortex dopamine release” value ([1]; as a function of time following administration (FIG. 11, FIG. 14)) was “dose-dependent” and the “nucleus accumbens dopamine release” value [2] was “modest increase”. The “cortical acetylcholine (ACh) efflux” value [3] was “significant increase”.
